Measurements published in a melting point compilation (Tetko et al.; mined from patent text by program, amines drawn as free bases though some values may be those of a salt).

SMILES	melting point [°C]
CCCc1c2oc(C(N)=O)cc(=O)c2cc2c(=O)cc(C(=O)OCC)oc12	229 to 231
O=C(COC(=O)Cc1ccccc1Nc1cc2c(cc1Cl)CCC2)OCc1ccccc1	97 to 100
O=C(C1CCCCC1)C1CCN(C(=O)c2cc(O)c(O)cc2[N+](=O)[O-])CC1	240
CCOC(=O)c1cc(C#N)c(C=O)nc1NC	137 to 139
CCOP(=O)(OCC)C(CC(C(=O)Nc1ccccc1)C(=O)c1ccccc1)P(=O)(OCC)OCC (configuration not stated)	104 to 105
CCN(C(=O)c1ccc2nonc2c1)C1CCCCC1	51 to 52
CNC(=O)O/N=C(/SC)C(F)(F)F	83 to 85
Cc1nc(N2CCN(Cc3ccccc3)S2(=O)=O)sc1C(=O)NCc1cccnc1	140 to 142
C#Cc1ncn2c1[C@@H]1CCCN1C(=O)c1c(Cl)cccc1-2	324 to 325
CCCc1nc2c(N)nc3ccccc3c2n1Cc1cc(-c2ccc(F)cc2)no1	226 to 227
CCCCC(=O)OCc1cnc(C)c(O)c1	114 to 115
CCCc1nn(-c2ccc(C(F)(F)F)cn2)cc1CCCOc1cc(CC(=O)O)ccc1F	88 to 89
COC(=O)[C@H]1Cc2ccc(C)cc2C(=O)[C@H](c2ccccc2)S1 (relative stereo)	136 to 137
O=C(O)C(=O)c1cccc(Cl)c1	59 to 62
COc1ccccc1[C@H](C)C(=O)N1C[C@@H]2[C@H](F)CCC(c3ccccc3)(c3ccccc3)[C@@H]2C1	195
CCOC(=O)C(C)Oc1ccc(N(C)c2nc3cc(Cl)ccc3o2)cc1 (configuration not stated)	68 to 68.6
COc1ccccc1N1CCN(CCn2c(=O)c3ccsc3n(C)c2=O)CC1	174 to 176
CC(C)(C)c1ccc2c(c1)C(COCc1ccccc1)([Si](C)(C)C)c1cc(C(C)(C)C)ccc1-2	100 to 102
CN1C(=O)NCc2cc(Br)cnc21	216 to 217
Cc1ccc2c(c1)C(NC(=O)CCl)CC(C)(C)O2 (configuration not stated)	147 to 148
Cc1cc2c(-c3cccc(CCC(=O)O)c3)c(CC(=O)Nc3ccc(F)cc3C(F)(F)F)c(=O)oc2cc1Cl	212 to 214
CCOc1ccc(-c2nc(-c3ccc(N4CCOCC4)c([N+](=O)[O-])c3)cs2)cc1OCC	119 to 120
Cc1c(Cl)nc(Br)n1S(=O)(=O)c1cccnc1Cl	144 to 146
O=C(O)c1ncccc1OCc1ccc(Cl)cc1	144

SMILES	melting point [°C]
NS(=O)(=O)c1ccccc1CCCl	168 to 171
COCCOC(=O)N=NC(=O)OCCOC	39.9 to 40.4
CCCc1cc(N2CCC(NCC(O)c3ccc4ccccc4n3)CC2)nc2sc(C(N)=O)c(N)c12 (configuration not stated)	159 to 161
CN(C)CCCCC(N)=O	86 to 87
CCCCCCCCCCCCCc1nc(NC(=O)Nc2c(C(C)C)cccc2C(C)C)no1	99 to 101
COC(=O)N(CC(=O)OC(C)(C)C)S(=O)(=O)c1ccc(N2CCC(NC[C@H](O)c3ccc(O)c(NS(C)(=O)=O)c3)CC2)cc1	110 to 115
CCNC(=O)c1ccc(N2CCN(Cc3cnc4c(c3)[nH]c(=O)n3cccc43)CC2)c(C)c1	255 to 258
CC1(C)C(=O)N(CCN2CCc3c([nH]c4ccccc34)C2)c2ccccc21	156 to 158
CC(C)C(c1ccc(N)cc1)n1cncn1 (configuration not stated)	118
COC(=O)C(CC(C)C)NC(=O)c1ccc(NCc2ncc[nH]2)cc1-c1ccccc1 (configuration not stated)	156 to 160
CC(C)(C)c1ccccc1N1CCN(C(=O)CC#N)CC1	163 to 164
CCN1CCCC1CNC(=O)c1cccc(NC(=O)N2CCc3cc(SC)c(C(F)(F)F)cc32)c1 (configuration not stated)	174 to 175
CON=c1cc(C)c2ccccc2[nH]c1=O	190 to 193
CCOC(=O)c1cc2c(F)cccc2[nH]c1=O	180
Cc1nc(NCc2ccccn2)[nH]c(=O)c1CCO	185
CC(C)COc1c(NCCCBr)c(=O)c1=O	70 to 71
CC(=O)SCC(C(=O)N[C@@H](Cc1c[nH]c2ccccc12)C(=O)O)C(F)(F)F (some centres not stated)	140 to 143
N#CCc1ccc(F)cc1C(=O)O	140
CCOC(=O)C1=C(C)C2=C(CC1)SCCC2=O	99 to 100
CN(C)C(=O)c1c(F)cccc1I	86 to 89
FC(F)Sc1nnc(-c2ccccn2)s1	90 to 92
O=Cc1ccc2noc(-c3cccc(Cl)c3)c2c1	148
Cc1cc(O)c(S(=O)Cc2ccccc2F)c(=O)o1 (configuration not stated)	115 to 116
CC(=CC(C)C)c1ccccc1NC(=O)c1cn(C)nc1C(F)(F)F	66 to 74

SMILES	melting point [°C]
Cc1c(NC(=O)c2ccc(-c3ccc(Cl)s3)cc2)ccc2cc(CN3CCCCCC3)cnc12	186 to 187
Cc1c(I)c(=O)n(-c2cc(C(=O)OC(C)C)c(Cl)cc2F)c(=O)n1C	147 to 150
CCOC(=O)C1(O)CSC(O)(C(=O)OCC)CS1 (configuration not stated)	139 to 143
CCOC(=O)c1cnc2sc(SCc3ccccc3)nn2c1=O	129 to 132
C#CCOC(=O)C1=C(N)NC(N)=C(C(=O)OCC#C)C1c1cccc([N+](=O)[O-])c1	170
N#Cc1c[nH]nc1-c1ccccc1Cl	160
CCOC(=O)Cc1ccc(NC(=O)C(COc2cccc(Cl)c2)NS(=O)(=O)c2ccc(F)cc2)cc1 (racemic)	164 to 165
Nc1ccnc2cc(Br)cnc12	168 to 169
CN(Cc1ccc2cc(NS(C)(=O)=O)ccc2n1)C1Cc2ccc(NS(C)(=O)=O)cc2C1 (configuration not stated)	189 to 191
C=CCC(CCC(CC=C)(C(=O)c1ccc(NCCO)cc1)N(C)C)(C(=O)c1ccc(NCCO)cc1)N(C)C (configuration not stated)	95 to 96
NC(=O)c1c(F)ccc(OCc2nc3ccc(Cl)cc3s2)c1F	190 to 191
CC(=O)OCCn1nc(-c2cc(C(C)(C)C)c(O)c(C(C)(C)C)c2)c2ccc(C(C)C)nc21	121 to 122
CC(=O)n1c(C)cc(=O)n(-c2cc(C(=O)OC(C)C)c(Cl)cc2F)c1=O	168 to 170
CCN1CCN=C1c1ccccc1C(=O)c1ccc(Cl)cc1	132 to 134
O=C(CCCCl)c1ccc2cc(O)c(O)cc2c1	129 to 135
CCCCCCCOc1ccc(COc2ccc3c(c2)CC(CC(=O)O)C3OC)cc1 (configuration not stated)	80 to 82
Cc1ccccc1S(=O)(=O)NC(=O)CCSC1c2ccccc2COc2ccc(OCc3ccc4ccc(Cl)cc4n3)cc21 (configuration not stated)	87 to 90
COc1ccc(-c2cccc(C#N)n2)cc1	86.3 to 86.6
O=C(O)CCCCc1cc(O)c(O)cc1[N+](=O)[O-]	111 to 114
C#CCC1(c2ccc(Cl)cc2)Cc2cc(OCC(=O)O)c(Cl)c(Cl)c2C1=O (configuration not stated)	200 to 201
Cc1cc(OCc2sc(-c3ccc(C(F)(F)F)cc3)nc2C)ccc1OC(C)(C)C(=O)O	154
Cc1c(CNCC2CCOCC2)[nH]c2ccc(NC(=O)c3ccc(OC[C@@H]4CCCO4)cc3)cc12	146 to 147
C#CCOc1ccc(C(=O)C=Cc2c(OC)cc(OC)cc2OC)c(O)c1	177 to 179
O=C1N(CCCl)c2ccc(F)cc2C12SCCCS2	122
